Structures can show the parent of a compound that is named as a salt.

T1 sequence (P20231 31-275): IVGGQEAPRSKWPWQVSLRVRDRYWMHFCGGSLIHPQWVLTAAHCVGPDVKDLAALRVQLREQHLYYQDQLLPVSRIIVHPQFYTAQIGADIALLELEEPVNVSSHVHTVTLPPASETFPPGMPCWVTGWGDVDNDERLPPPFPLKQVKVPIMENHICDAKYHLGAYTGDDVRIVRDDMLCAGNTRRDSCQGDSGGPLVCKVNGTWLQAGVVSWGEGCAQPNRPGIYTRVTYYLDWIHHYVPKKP

One assay concerns the target T1, rh beta trypsin (Homo sapiens, UniProt P20231).
T1 construct: purchased Promega
As to the kind of experiment: Trypsin (tryptase) inhibition, cleavage of N-p-Gly-Pro-Lys-para-nitroaniline measured at 405 nm. The settings on record: in vitro tests on the pro-drugs of formula IIA; read-out: IC50. The class given is biochemical. As for the experimental part: The compounds of the invention are notable for their effective trypsin-inhibiting property. The said capacity to inhibit trypsin activity was determined in accordance with the following trial descriptions.
The determinations are carried out in tris-HCl buffer (100 mM), that also contained calcium (5 mM) and heparin ([…]), at a pH of 7.4. As the standard, rh beta trypsin is used, this is commercially obtainable, for example, from Promega. A suitable substrate is N-p-Gly-Pro-Lys-para-nitroaniline in a concentration of 0.6 mM. The substrate is digested with trypsin, whereby p-nitro-aniline is obtained that can be measured at 405 nm. Normally, an incubation period of 5 minutes and an incubation temperature of 37° C. is chosen. For the enzyme activity, 0.91 U/ml are used. The determination is carriedout in an auto-analyser (Cobas Bio) from the firm Hoffmann LaRoche. The potential inhibitor substances are used in the screening procedure in concentrations of 10 μM, and the inhibition of the trypsin is given in percentages. At an inhibition in excess of 70%, the IC50 is determined (the concentration at which 50% of the enzyme activity is inhibited). After a 5-minute pre-incubation of the potential inhibiting substance, the substrate is added for the start of the reaction, whereby the production of p-nitro-aniline is taken, after 5 minutes, after testing the linearity, as a measure of the enzyme activity.
Consider `CCOC(=O)N=C(N)c1ccc(CCc2nc3cc(C(=O)N4CCC(NC(=O)c5ccccc5)CC4)ccc3n2C)cc1` [IIA6], for which the IC50 stood at 2490 nM.

The same assay, now with this note: in vitro; tris-HCl buffer pH 7.4 with calcium and heparin; substrate 0.6 mM; 5 minutes, 37° C.; read-out: Trypsin-inhibiting property.
Regarding `CN(C1CCN(C(=O)c2ccc3c(c2)nc(CCc2ccc(C(=N)N)cc2)n3C)CC1)S(=O)(=O)c1cccc2ccccc12` [Example 169], the IC50 lay in the range of 1 to 20 nM. On the same count and under the same terms, as for `CN(C(=O)Nc1cccc(Cl)c1Cl)C1CCN(C(=O)c2ccc3c(c2)nc(CCc2ccc(C(=N)N)cc2)n3C)CC1` [Example 55, 2-[2-(4-Amidinophenyl)-ethyl]-1-methyl-benzimidazole-5-yl-carboxylic acid-{4-[3-(2,3-dichloro)-phenyl-1-methyl-ureido]piperidinyl)-amide], the figure is 1 to 20 nM; as for `Cn1c(CCc2ccc(C(=N)N)cc2)nc2cc(C(=O)N3CCC(NC(=O)c4cccc(Br)c4)CC3)ccc21` [Example 45, 2-[2-(4-Amidinophenyl)-ethyl]-1-methyl-benzimidazole-5-yl-carboxylic acid-[4-(3-bromo)-benzamidopiperidinyl)-amide], 0.1 to 1 nM; as for `Cn1c(CCc2ccc(C(=N)N)cc2)nc2cc(C(=O)N3CCC(Nc4cccc(Cl)c4Cl)CC3)ccc21` [Example 65], 1 to 20 nM. As to `Cn1c(CCc2ccc(C(=N)N)cc2)nc2cc(C(=O)N3CCC(NC(=O)Nc4cccc5ccccc45)CC3)ccc21` [Example 34, 4-(2-{1-Methyl-5-[4-(3-naphthalen-1-yl-ureido)-piperidine-1-carbonyl]-1H-benzimidazole-2-yl}-ethyl)-benzamidine], the IC50 was 1 to 20 nM.

On to `Cn1c(CCc2ccc(C(=N)N)cc2)nc2cc(C(=O)N3CCC(NC(=O)Nc4ccc(C(F)(F)F)cc4)CC3)ccc21` [Example 41, 4-[2-(1-Methyl-5-{4-[3-(4-trifluoromethyl-phenyl)-ureido]-piperidine-1-carbonyl}-1H-benzimidazole-2-yl)-ethyl]-benzamidine], for which the IC50 lay within 1 to 20 nM. Consider `Cn1c(CCc2ccc(C(=N)N)cc2)nc2cc(C(=O)N3CCC(NC(=O)Nc4ccc(Br)cc4)CC3)ccc21` [Example 39, 4-[2-(5-{4-[3-(4-Bromo-phenyl)-ureido]-piperidine-1-carbonyl}-1-methyl-1H-benzimidazole-2-yl)-ethyl] -benzamidine], for which the IC50 was in the range of 1 to 20 nM. The same measure, in the same setting: the value for `Cn1c(CCc2ccc(C(=N)N)cc2)nc2cc(C(=O)N3CCC(NC(=O)c4ccccc4O)CC3)ccc21` [Example 46, 2-[2-(4-Amidinophenyl)-ethyl]-1-methyl-benzimidazole-5-yl-carboxylic acid-[4-(2-hydroxy)-benzamidopiperidinyl)-amide] was 1 to 20 nM; that for `Cn1c(CCc2ccc(C(=N)N)cc2)nc2cc(C(=O)N3CCC(NC(=O)Nc4ccc(Cl)cc4)CC3)ccc21` [Example 31, 4-[2-(5-{4-[3-(4-Chloro-phenyl)-ureido]-piperidine-1-carbonyl}-1-methyl-1H-benzimidazole-2-yl)-ethyl]-benzamidine] was 1 to 20 nM. Turning to `CN(C(=O)c1ccccc1)C1CCN(C(=O)c2ccc3c(c2)nc(CCc2ccc(C(=N)N)cc2)n3C)CC1` [Example 53, 2-[2-(4-Amidinophenyl)-ethyl]-1-methyl-benzimidazole-5-yl-carbooxylic acid-[4-(N-methyl)benzamidopiperidinyl]-amide], the IC50 is 1 to 20 nM. In the case of `Cn1c(CCc2ccc(C(=N)N)cc2)nc2cc(C(=O)N3CCC(NC(=O)c4cccc(Cl)c4Cl)CC3)ccc21` [Example 67], the IC50 was in the range of 0.1 to 1 nM. With `Cn1c(CCc2ccc(C(=N)N)cc2)nc2cc(C(=O)N3CCC(NC(=O)Nc4cccc(F)c4)CC3)ccc21` [Example 26, 4-[2-(5-{4-[3-(3-Fluoro-phenyl)-ureido]-piperidine-1-carbonyl}-1-methyl-1H-benzimidazole-2-yl)-ethyl]-benzamidine], the IC50 lay in the range of 1 to 20 nM. Regarding `CCCCS(=O)(=O)N(C)C1CCN(C(=O)c2ccc3c(c2)nc(CCc2ccc(C(=N)N)cc2)n3C)CC1` [Example 168], the IC50 was in the range of 1 to 20 nM. The same measure, in the same setting: as for `Cn1c(CCc2ccc(C(=N)N)cc2)nc2cc(C(=O)N3CCC(NC(=O)Nc4cccc(Br)c4)CC3)ccc21` [Example 43, 4-[2-(5-{4-[3-(3-Bromo-phenyl)-ureido]-piperidine-1-carbonyl}-1-methyl-1H-benzimidazole-2-yl)-ethyl]-benzamidine], the figure is 0.1 to 1 nM; as for `Cn1c(CCc2ccc(C(=N)N)cc2)nc2cc(C(=O)N3CCC(NC(=O)Nc4cccc(C(=O)O)c4)CC3)ccc21` [Example 62, [2-(4-Amidinophenyl)-ethyl]-1-methyl-benzimidazole-5-yl-carboxylic acid-{4-[3-(3-carboxyphenyl)-ureido]-piperidinyl}-amide], 1 to 20 nM; as for `Cn1c(CCc2ccc(C(=N)N)cc2)nc2cc(C(=O)N3CCC(NC(=O)c4cc(Cl)ccc4Cl)CC3)ccc21` [Example 64], 0.1 to 1 nM. For `Cn1c(CCc2ccc(C(=N)N)cc2)nc2cc(C(=O)N3CCC(NS(=O)(=O)/C=C/c4ccccc4)CC3)ccc21` [Example 167], the IC50 was in the range of 1 to 20 nM. Still for that read-out and setting: the value for `CN(C1CCN(C(=O)c2ccc3c(c2)nc(CCc2ccc(C(=N)N)cc2)n3C)CC1)S(=O)(=O)/C=C/c1ccccc1` [Example 166] was 1 to 20 nM; that for `Cn1c(CCc2ccc(C(=N)N)cc2)nc2cc(C(=O)N3CCN(C/C=C/c4ccccc4)CC3)ccc21` [Example 1, [2-(4-amidinophenyl)-ethyl]-1-methyl-benzimidazole-5-yl-carboxylic acid-[4-(3-phenyl-allyl)-piperazinyl]-amide-dihydrochloride] was 1 to 20 nM; that for `Cc1cccc(NC(=O)NC2CCN(C(=O)c3ccc4c(c3)nc(CCc3ccc(C(=N)N)cc3)n4C)CC2)c1` [Example 25, 4-(2-{1-Methyl-5-[4-(3-m-tolyl-ureido)-piperidine-1-carbonyl]-1H-benzimidazole-2-yl}-ethyl)-benzamidine] was 1 to 20 nM. Same read-out and setting: as for `Cn1c(CCc2ccc(C(=N)N)cc2)nc2cc(C(=O)N3CCC(NC(=O)Nc4ccccc4F)CC3)ccc21` [Example 27, 4-[2-(5-{4-[3-(2-Fluoro-phenyl)-ureido]-piperidine-1-carbonyl}-1-methyl-1H-benzimidazole-2-yl)-ethyl]-benzamidine], the figure is 0.1 to 1 nM.

In the case of `COc1cccc(NC(=O)NC2CCN(C(=O)c3ccc4c(c3)nc(CCc3ccc(C(=N)N)cc3)n4C)CC2)c1` [Example 28, 4-[2-(5-{4-[3-(3-Methoxy-phenyl)-ureido]-piperidine-1-carbonyl}-1-methyl-1H-benzimidazole-2-yl)-ethyl]-benzamidine], the IC50 is 0.1 to 1 nM. Same read-out and setting: as for `Cn1c(CCc2ccc(C(=N)N)cc2)nc2cc(C(=O)N3CCC(NC(=O)c4cccc(Cl)c4)CC3)ccc21` [Example 44, 2-[2-(4-Amidinophenyl)-ethyl]-1-methyl-benzimidazole-5-yl-carboxylic acid-[4-(3-chloro)-benzamidopiperidinyl)-amide], the figure is 0.1 to 1 nM; as for `CN(C1CCN(C(=O)c2ccc3c(c2)nc(CCc2ccc(C(=N)N)cc2)n3C)CC1)S(=O)(=O)c1cccc(Cl)c1Cl` [Example 171], 20 to 50 nM. On the same count and under the same terms, the value for `COc1ccccc1C(=O)NC1CCN(C(=O)c2ccc3c(c2)nc(CCc2ccc(C(=N)N)cc2)n3C)CC1` [Example 50, 2-[2-(4-Amidinophenyl)-ethyl]-1-methyl-benzimidazole-5-yl-carboxylic acid-[4-(2-methoxy)-benzamidopiperidinyl)-amide] was 1 to 20 nM; that for `Cn1c(CCc2ccc(C(=N)N)cc2)nc2cc(C(=O)N3CCC(NC(=O)Nc4c(F)cccc4F)CC3)ccc21` [Example 38, 4-[2-(5-{4-[3-(2,6-Difluoro-phenyl)-ureido]-piperidine-1-carbonyl}-1-methyl-1H-benzimidazole-2-yl)-ethyl] -benzamidine] was 1 to 20 nM.

Regarding `CSc1cccc(NC(=O)NC2CCN(C(=O)c3ccc4c(c3)nc(CCc3ccc(C(=N)N)cc3)n4C)CC2)c1` [Example 58, 2-[2-(4-Amidinophenyl)-ethyl]-1-methyl-benzimidazole-5-yl-carboxylic acid-{4-[3-(3-methylsulfanyl)phenylureido]piperidinyl}-amide], the IC50 was in the range of 0.1 to 1 nM. Still for that read-out and setting: the value for `Cn1c(CCc2ccc(C(=N)N)cc2)nc2cc(C(=O)N3CCC(NC(=O)Nc4cccc(Cl)c4)CC3)ccc21` [Example 60, 2-[2-(4-Amidinophenyl)-ethyl]-1-methyl-benzimidazole-5-yl-carboxylic acid-{4-[3-(3-chloro)-phenylureido]piperidinyl}-amide] was 0.1 to 1 nM; that for `Cn1c(CCc2ccc(C(=N)N)cc2)nc2cc(C(=O)N3CCC(NC(=O)Nc4ccc(F)cc4)CC3)ccc21` [Example 42, 4-[2-(5-{4-[3-(4-Fluoro-phenyl)-ureido]-piperidine-1-carbonyl}-1-methyl-1H-benzimidazole-2-yl)-ethyl]-benzamidine] was 1 to 20 nM. The same measure, in the same setting: as for `Cn1c(CCc2ccc(C(=N)N)cc2)nc2cc(C(=O)N3CCC(NC(=O)c4cccc(Cl)c4Cl)CC3)ccc21` [Example 49, 2-[2-(4-Amidinophenyl)-ethyl]-1-methyl-benzimidazole-5-yl-carboxylic acid-[4-(2,3-dichloro)-benzamidopiperidinyl)-amide], the figure is 1 to 20 nM.

Source of the values: patent US6855713B2, “Benzimidazole derivatives, a process for their manufacture and use as a medicine” (Boehringer Ingelheim Pharma KG, priority 2001, dated 2005).
